Article PMC7217877, “N-AS-triggered SPMs are direct regulators of microglia in a model of Alzheimer’s disease” (Nature Communications, 2020)
Values joined by “and” are separate entries in the source; they are usually repeats but may differ in a detail not shown here. Equal values may be shown once. Read-outs that look alike come from different tables or passages of the source. Values belong to the molecule of their own block, whether it stands above or below them.

What was measured:
[1] = single-dose plasma PK; format: in vivo, C57BL/6 mice; settings: mouse; for AUC(0-inf): read-out: AUCinf (Plasma); for AUC(0-t): read-out: AUClast (Plasma)
Description: (§1) C57BL/6 mice were administered N-AS (Sigma-Aldrich, 01912) at doses of 1 mg kg^−1 (i.v.) or 10 mg kg^−1 (p.o.). Venous blood samples were collected at 5, 15, and 30 min, and 1, 2, 4, 8, and 24 h postdose. A 30 μl of plasma was separated from whole blood by centrifugation and stored at −80 °C until analysis. Also, brain samples were collected at 1, 2, 4, and 24 h postdose and heart, liver, and kidney samples were collected at 24 h postdose, thoroughly rinsed with physiological saline and weighed. Twenty percentage of tissue homogenates were prepared by homogenizing the tissue samples with four volumes of saline. A 30 μl aliquot of plasma or a 50 μl aliquot of tissue homogenates were deproteinized by addition of 200 μl cold methanol (containing naringenin as internal standard at 20 ng ml^−1) and centrifuged at 15,974×g for 10 min. A 10 μl aliquot of the supernatant was injected into Agilent 6470 LC-MS/MS system. Separation was performed on a Synergy Polar RP column (4 μm particle size, 2.0 mm ×150 mm, Phenomenex) using a mobile phase that consisted of methanol and water (85:15, v/v) with 0.1% formic acid at a flow rate of 0.2 ml min^−1. Quantification was carried out using multiple reaction monitoring (MRM) at m/z 340.3→263.3 for N-AS and m/z 271.1→151.3 for naringenin (internal standard) in negative ionization mode and collision energy of 20 eV. p, and relative oral BA values were calculated as follows: BA% = AUCp.o. normalized by p.o. dose/AUCi.v. normalized by i.v. dose × 100.

[2] = tissue concentrations at 24 h (brain, liver, kidney, heart; Supplementary Fig 3g); format: in vivo, C57BL/6 mice; parameters: Brain concentration (sFig 3g): unit not given here; settings: for Heart concentration (sFig 3g) / Kidney concentration (sFig 3g) / Liver concentration (sFig 3g) / Brain concentration (sFig 3g): 24 h, individual animals
Description: as §1

[3] = test system: microglia; test: sphingosine level in primary cells (UPLC); format: cell-based, C57BL/6 mice; settings: Ab 10mM, replicates
Description: To confirm the generation and roles of N-AS in neurons, cells from E18 C57BL/6 mice were prepared as previously described. Cortices were dissected and then dissociated followed by incubation in papain (Worthington) at 37 °C for 15 min. Neurons were plated on poly-L-lysine-coated coverslips with neuronal culture medium, serum-free Neurobasal medium (Gibco) containing 2% B27 supplements (Gibco), 1 mM Glutamax supplement (Gibco), and 100 U ml^−1 streptomycin/ 100 U ml^−1 penicillin (Gibco) at 37 °C in a humidified atmosphere of 5% CO2. Aβ 1–42 (10 μM, 24 h, Invitrogen, 03112) was exposed to neurons and the cells were analyzed for the generation and roles of N-AS. Primary astrocyte cultures were prepared from C57BL/6 mice as described previously. […] The human microglia treated with Aβ 1–42 and/or zileuton was incubated with N-AS (2.5 μM, 2 h, Sigma-Aldrich, 01912), and were analyzed for the generation and roles of N-AS.
To quantify the sphingosine levels, the dried lipid extract was resuspended in 0.2% Igepal CA-630. […] The fluorescent sphingosine was monitored using a model 474 scanning fluorescence detector (Waters). Quantification of the sphingosine was calculated from sphingosine calibration curves using the Waters Millennium software.

[4] = C57BL/6, plasma, iv, i.v. 1 mg/kg
[5] = C57BL/6, plasma, po, p.o. 10 mg/kg

- MRT [1, 4]: 2.27 ± 0.11 h
- half-life [1, 4]: 3.45 ± 0.16 h
- AUC(0-inf) [1, 4]: 667 ± 28.8 ng·h/mL
- AUC(0-t) [1, 4]: 665 ± 28.6 ng·h/mL
- bioavailability ([1]; C57BL/6, plasma, oral, p.o. 10 mg/kg vs i.v. 1 mg/kg, read-out: BA (Bioavailability)): 8.25%
- Cmax [1, 5]: 683 ± 141 ng/mL
- MRT [1, 5]: 3.1 ± 0.14 h
- Tmax [1, 5]: 0.25 h
- half-life [1, 5]: 3.68 ± 0.14 h
- AUC(0-inf) [1, 5]: 550 ± 71.3 ng·h/mL
- AUC(0-t) [1, 5]: 545 ± 72.1 ng·h/mL
- Co (Plasma) ([1]; i.v. 1 mg/kg): 854.36 ± 128.60 ng/mL
- bioavailability (BA), in words ([1]; p.o.): low
- Heart concentration (sFig 3g) ([2]; i.v 1mg/kg): 0
- Kidney concentration (sFig 3g) ([2]; i.v 1mg/kg): 0
- Liver concentration (sFig 3g) ([2]; i.v 1mg/kg): 0
- Brain concentration (sFig 3g) ([2]; i.v 1mg/kg, 1 mg/kg): 13.15 and 12.57 and 8.38 and 7.48
- Heart concentration (sFig 3g) ([2]; p.o. 10mg/kg): 0
- Kidney concentration (sFig 3g) ([2]; p.o. 10mg/kg): 0
- Liver concentration (sFig 3g) ([2]; p.o. 10mg/kg): 0
- Brain concentration (sFig 3g) ([2]; p.o. 10mg/kg, 10 mg/kg): 20.2 and 32.76 and 11.3 and 29.06
Molecule: CCCCCCCCCCCCC/C=C/[C@@H](O)[C@H](CO)NC(C)=O [N-AS, N-((2S,3R,E)-1,3-Dihydroxyoctadec-4-en-2-yl)acetamide]
- tissue concentration of N-AS at 24 hours post administration, in words ([2]; brain vs liver, kidney, heart, i.v. 1 mg/kg or p.o. 10 mg/kg): brain showed the highest concentration of N-AS

Molecule: Ab: Aβ 1–42 (Invitrogen, 03112) used to induce an AD environment in cells
- sphingosine (Fig 3f) [3]: 0.15 and 0.136 and 0.128 and 0.16 and 0.14 and 0.144
